Key:
anterior lens capsule = assay: staining capacity of the dyes (general statement); conditions: very low amounts of dye
[1] = toxicity profile of the dyes (general statement)

In the case of Cc1cc(-c2ccc(/N=N/c3c(S(=O)(=O)O)cc4cc(S(=O)(=O)O)cc(N)c4c3O)c(C)c2)ccc1/N=N/c1c(S(=O)(=O)O)cc2cc(S(=O)(=O)O)cc(N)c2c1O [trypan blue], the staining (anterior lens capsule) is reported as “clearly visible staining at very low amounts” and the toxicity profile [1] is reported as “extremely advantageous toxicity profile”.
With CCN(CC)c1ccc2nc3cc(C)c(N)cc3[o+]c2c1.[Cl-] [brilliant crysyl blue] the staining (anterior lens capsule) was “clearly visible staining at very low amounts” and the toxicity profile [1] was “extremely advantageous toxicity profile”.
With Nc1c(S(=O)(=O)[O-])cc2cc(S(=O)(=O)[O-])ccc2c1N=Nc1ccc(-c2ccc(N=Nc3c(N)c(S(=O)(=O)[O-])cc4cc(S(=O)(=O)[O-])ccc34)c(S(=O)(=O)[O-])c2)cc1.[Na+].[Na+].[Na+].[Na+].[Na+] [trypan red] the staining (anterior lens capsule) was “clearly visible staining at very low amounts”.
